Like-named read-outs stand apart in the source and are kept apart here.
Experiments:
[1] = system: endothelial nitric oxide synthase (eNOS) genetic expression in HUVECs; experiment: Relative eNOS genetic expression amount in HUVECs (OneStep real-time RT-PCR, Taqman probe, ddCt method); assay type: cell-based; conditions: 24 hours; for Relative eNOS genetic expression amount, Significant difference: vs control example 1, Dunnett's test; for action for promoting production of endothelial nitric oxide synthase (conclusion in words): 30 μM; for fold induction at 30 µM / fold induction at 1 µM: Homo sapiens, HUVEC
Method: HUVECs (made by Lonza; catalog no.: C2519AS)
EGM-2 (made by Lonza; catalog no.: CC-3162)
The substances under test in (1) to (3) below were each dissolved in dimethyl sulfoxide (DMSO) (made by Nacalai Tesque) to prepare solutions having a concentration of 30 mM, and the solutions were added to the culture medium at a 1/1000 proportion to prepare culture media in which the target final concentration of the respective substances under test was 30 μM (Examples 1 to 3).
• (1) Tetradecanoic acid (C14:0) (purity: 100%; made by Sigma-Aldrich) • (2) Pentadecanoic acid (C15:0) (purity: 98.8%; made by Sigma-Aldrich) • (3) Tridecanoic acid (C13:0) (purity: 99.2%; made by Sigma-Aldrich) • (4) Fluvastatin (made by Tokyo Chemical Industry Co., Ltd.; model no.: F0820)
The HUVECs were thawed in a T75 flask and cultured in a CO2 incubator (“SCA-165DRS” made by Astec Co., Ltd.; conditions: 37 °C, 5% CO2, humid; same below) using the EGM-2. The cells were isolated using a 0.05% concentration trypsin solution (“Trypsin-EDTA (0.05%), phenol red” made by Thermo Fisher Scientific; catalog no.: 25300054), sown in a 96-well plate using the culture medium, and cultured in the CO2 incubator. The next day, the culture medium was replaced with the culture media prepared in section “(3. Preparation of substances under test)” above, and the cells were then cultured for 24 hours in the CO2 incubator to carry out treatment using the substances under test.
[5. RNA Extraction, qPCR]
After the treatment, a culture medium supernatant was recovered, RNA was extracted from the cells using a FastLane Cell Probe kit (made by QIAGEN; catalog no.: 215011), OneStep real-time RT-PCR was carried out using a Taqman probe, and the relative eNOS genetic expression amount was calculated by means of the ddCt method. The relative eNOS genetic expression amount was derived by dividing the eNOS genetic expression amount by the GAPDH genetic expression amount.
A significant difference between the substance-under-test treatment groups (control example 2 and the examples) and control example 1 was certified by means of Dunnett's test.

[2] = system: endothelial nitric oxide synthase; conditions: positive control; stated as known; cited from earlier work
[3] = 30 μM final concentration, average of n1-n5, control example 1 (none added) = 1.00, read-out: Relative eNOS genetic expression amount, Average value of n1-n5
[4] = 30 μM final concentration, replicate n1, eNOS/GAPDH, relative to control example 1, read-out: Relative eNOS genetic expression amount, n1
[5] = 30 μM final concentration, replicate n2, eNOS/GAPDH, relative to control example 1, read-out: Relative eNOS genetic expression amount, n2
[6] = 30 μM final concentration, replicate n3, eNOS/GAPDH, relative to control example 1, read-out: Relative eNOS genetic expression amount, n3
[7] = 30 μM final concentration, replicate n4, eNOS/GAPDH, relative to control example 1, read-out: Relative eNOS genetic expression amount, n4
[8] = 30 μM final concentration, replicate n5, eNOS/GAPDH, relative to control example 1, read-out: Relative eNOS genetic expression amount, n5

Structure (SMILES)	Relative eNOS genetic expression amount, Significant difference ([1]; 30 μM final concentration)	action for promoting production of endothelial nitric oxide synthase (conclusion in words) [1]	fold induction at 30 µM [1, 3]	fold induction at 30 µM [1, 4]	fold induction at 30 µM [1, 5]	fold induction at 30 µM [1, 6]	fold induction at 30 µM [1, 7]	fold induction at 30 µM [1, 8]	known action for promoting the production of endothelial nitric oxide synthase [2]	Relative eNOS genetic expression amount (in words) ([1]; 1 μM (control example 2), compared with control example 1)	Relative eNOS genetic expression amount, Significant difference ([1]; 1 μM final concentration (positive control))	fold induction at 1 µM ([1]; 1 μM final concentration (positive control), average of n1-n5, control example 1 (none added) = 1.00, read-out: Relative eNOS genetic expression amount, Average value of n1-n5)	fold induction at 1 µM ([1]; 1 μM final concentration (positive control), replicate n1, eNOS/GAPDH, relative to control example 1, read-out: Relative eNOS genetic expression amount, n1)	fold induction at 1 µM ([1]; 1 μM final concentration (positive control), replicate n2, eNOS/GAPDH, relative to control example 1, read-out: Relative eNOS genetic expression amount, n2)	fold induction at 1 µM ([1]; 1 μM final concentration (positive control), replicate n3, eNOS/GAPDH, relative to control example 1, read-out: Relative eNOS genetic expression amount, n3)	fold induction at 1 µM ([1]; 1 μM final concentration (positive control), replicate n4, eNOS/GAPDH, relative to control example 1, read-out: Relative eNOS genetic expression amount, n4)	fold induction at 1 µM ([1]; 1 μM final concentration (positive control), replicate n5, eNOS/GAPDH, relative to control example 1, read-out: Relative eNOS genetic expression amount, n5)
CCCCCCCCCCCCCCC(=O)O [Example 2, Pentadecanoic acid]	** (Level of significance across both sides: 1%)	have an action for promoting production of endothelial nitric oxide synthase	1.26	1.15	1.28	1.2	1.36	1.3									
CC(C)n1c(/C=C/C(O)CC(O)CC(=O)O)c(-c2ccc(F)cc2)c2ccccc21 (stereo not drawn) [Fluvastatin, reference compound]									known to have an action for promoting the production of endothelial nitric oxide synthase	significantly higher than that in control example 1	** (Level of significance across both sides: 1%)	2.62	2.45	2.57	2.57	2.89	2.61
CCCCCCCCCCCCC(=O)O [Example 3, Tridecanoic acid]	** (Level of significance across both sides: 1%)	have an action for promoting production of endothelial nitric oxide synthase	1.25	1.15	1.33	1.26	1.28	1.24									
CCCCCCCCCCCCCC(=O)O [Example 1, Tetradecanoic acid]	** (Level of significance across both sides: 1%)	have an action for promoting production of endothelial nitric oxide synthase	1.26	1.27	1.26	1.31	1.12	1.33									

Reference: patent US20260364038A1, “VASODILATOR, NITRIC OXIDE SYNTHASE PRODUCTION PROMOTER, AND USE OF SAME” (J-OIL MILLS, INC., priority 2022, published 2026)
